For this assay, the system named is endogenous KDEL receptor in COS-7 cells. Description: ER retrieval assay, endogenous KDEL receptor redistribution. It is filed as cell-based, African green monkey. The source says: Figure 1. ER retrieval signal abundance and affinity are not correlated. (a) Sequence logos for ER resident proteins with C-terminal KDEL retrieval signals and variants thereof calculated using frequency or protein abundance ([Itzhak et al., 2017]; [Itzhak et al., 2016]). (b) Combined cellular concentrations of ER resident proteins with canonical KDEL, RDEL, and HDEL retrieval sequences in HeLa cells and mouse brain. (c) Competition binding assays for [^3H]-TAEHDEL and unlabelled TAEKDEL, TAERDEL, and TAEHDEL to the KDEL receptor. IC50 values for the competing peptides were used to calculate the apparent KDwith the Cheng-Prusoff equation ([Cheng and Prusoff, 1973]). (d) Endogenous KDEL receptor redistribution was measured in COS-7 cells in the absence (-ligand) or presence of K/R/H/A/DDEL (mScarlet-xDEL^sec). TGN46 was used as a Golgi marker. Scale bar is 10 µm. (e) The mean difference for K/R/H/A/DDEL comparisons against the shared no ligand control are shown as Cummings estimation plots. The individual data points for the fraction of KDEL receptor fluorescence in the Golgi are plotted on the upper axes with sample sizes and p values. Figure 1—source data 1. Source data for the ligand-induced KDELR receptor retrieval assays in Figure 1e. Figure 1—figure supplement 1. […] Endogenous ER chaperone secretion was measured by western blotting after challenge with different retrieval signals, and plotted as a bar graph showing mean ± SEM (n = 3). […] (a) Distribution of human KDELR1 and (b) KDELR2 was measured in COS-7 cells in the absence (-ligand) or presence of K/R/H/A/DDEL retrieval signals (K/R/H/A/DDEL^sec). […] The fraction of KDEL receptor localised to the Golgi was measured before (no ligand) and after challenge with different retrieval signals as indicated. […]
To create KDELR1-GFP and KDELR2-GFP, the reading frames for Homo sapiens KDELR1 (Uniprot: P24390) and KDELR2 (Uniprot: P33947) were cloned into the pEF5/FRT low level mammalian expression vector with a C-terminal 20 amino acid linker made up of 5 copies of Gly-Ser-Ser-Ser followed by GFP. […]

Consider “ADEL [pcDNA3.1 hGHss-mScarlet-H. sapiens BiP639-654K651A (ADEL^SEC), secreted mScarlet fusion with human BiP C-terminus, ADEL signal]”, for which the “localisation of the mScarlet ligand (in words)” value (COS-7 cells) was “predominantly Golgi and punctate localisation consistent with secretion”. For the same substance, under “COS-7 cells expressing mScarlet-xDEL^sec”, the “endogenous KDEL receptor redistribution from Golgi to ER (in words)” value was “little effect on the Golgi-ER distribution of the receptor”.

The record behind these values is publication PMC8248988, “A signal capture and proofreading mechanism for the KDEL-receptor explains selectivity and dynamic range in ER retrieval” (eLife, 2021).
